Test results reported in patent publication US7109193B2, “Tricyclic diazepines tocolytic oxytocin receptor antagonists” (Wyeth, priority 2001, dated 2006).
Counter-ions that a name gives are not always drawn.

Target: T1, human vasopressin V2 receptor subtype (Homo sapiens, UniProt P30518)
T1 construct: host or cells: CHO cells (pZeoSV vector)
Assay: Vasopressin binding in Chinese Hamster Ovary cell membranes expressing human vasopressin V2 subtype receptors
Details: CHO cell membranes, [3H]arginine vasopressin; for inhibition at 0.1 µM: 100 nM, values without parentheses; for IC50: values in parentheses
Procedure, shortened: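 Radioligand displacement on membranes from CHO cells stably expressing human V2 receptor, 25 to 50 μg protein/well, in 50 mM Tris-HCl pH 7.4 with MgCl2, BSA and protease inhibitors. [^3H]arginine vasopressin (8 nM working solution) incubated 60 min at room temperature; bound label measured by filtration and scintillation counting.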

T1 sequence (P30518 whole entry): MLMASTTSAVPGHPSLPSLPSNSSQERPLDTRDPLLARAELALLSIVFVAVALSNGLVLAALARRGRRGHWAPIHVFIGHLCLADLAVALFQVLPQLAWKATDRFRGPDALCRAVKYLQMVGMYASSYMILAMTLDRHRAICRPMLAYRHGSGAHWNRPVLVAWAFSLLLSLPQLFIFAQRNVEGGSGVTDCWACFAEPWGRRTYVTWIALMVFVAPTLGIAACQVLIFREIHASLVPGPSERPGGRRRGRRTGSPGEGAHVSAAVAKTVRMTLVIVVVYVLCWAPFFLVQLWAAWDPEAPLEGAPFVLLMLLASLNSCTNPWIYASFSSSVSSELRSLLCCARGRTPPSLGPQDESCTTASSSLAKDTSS

inhibition at 0.1 µM | IC50 | SMILES
30% | – | COc1ccccc1-c1ccc(C(=O)N2Cc3ccc(C(=O)N(C)CCN(C)C)n3Cc3ccccc32)cc1C [Example 88, N-[2-(Dimethylamino)ethyl]-10-[(2′-methoxy-2-methyl[1,1′-biphenyl]-4-yl)carbonyl]-N-methyl-10,11-dihydro-5H-pyrrolo[2,1-c][1,4]benzodiazepine-3-carboxamide]
– | 190 nM | COc1ccccc1-c1ccc(C(=O)N2Cc3ccc(C(=O)N4CCN(CCN5CCOCC5)CC4)n3Cc3ccccc32)cc1C [Example 206, {10-[(2′-Methoxy-2-methyl[1,1′-biphenyl]-4-yl)carbonyl]-10,11-dihydro-5H-pyrrolo[2,1-c][1,4]benzodiazepin-3-yl}{4-[2-(4-morpholinyl)ethyl]-1-piperazinyl}methanone]
– | 597 nM | COc1cc(-c2ccccc2C)c(Cl)cc1C(=O)N1Cc2ccc(C(=O)N3CCC(N4CCCC4)CC3)n2Cc2ccccc21 [Example 136, {10-[(6-Chloro-3-methoxy-2′-methyl[1,1′-biphenyl]-4-yl)carbonyl]-10,11-dihydro-5H-pyrrolo[2,1-c][1,4]benzodiazepin-3-yl}[4-(1-pyrrolidinyl)-1-piperidinyl]methanone]
18% | – | CN(C)CCCNC(=O)c1ccc2n1Cc1ccccc1N(C(=O)c1ccc(-c3cccc4ccccc34)cc1Cl)C2 [Example 83, 10-[2-Chloro-4-(1-naphthyl)benzoyl]-N-[3-(dimethylamino)propyl]-10,11-dihydro-5H-pyrrolo[2,1-c][1,4]benzodiazepine-3-carboxamide]
10% | – | COc1cccc(-c2ccc(C(=O)N3Cc4ccc(C(=O)NCCCN(C)C)n4Cc4ccccc43)cc2OC)c1 [Example 82, 10-[(2,3′-Dimethoxy[1,1′-biphenyl]-4-yl)carbonyl]-N-[3-(dimethylamino)propyl]-10,11-dihydro-5H-pyrrolo[2,1-c][1,4]benzodiazepine-3-carboxamide]
– | 1030 nM | COc1cc(-c2ccccc2C)c(Cl)cc1C(=O)N1Cc2ccc(C(=O)N(C)CCCN(C)C)n2Cc2ccccc21 [Example 98, 10-[(6-Chloro-3-methoxy-2′-methyl[1,1′-biphenyl]-4-yl)carbonyl]-N-[3-(dimethylamino)propyl]-N-methyl-10,11-dihydro-5H-pyrrolo[2,1-c][1,4]benzodiazepine-3-carboxamide]
– | 601 nM | COc1ccccc1-c1ccc(C(=O)N2Cc3ccc(C(=O)N4CCN(CCN5CCOCC5)CC4)n3Cc3ccccc32)cc1 [Example 207, {10-[(2′-Methoxy[1,1′-biphenyl]-4-yl)carbonyl]-10,11-dihydro-5H-pyrrolo[2,1-c][1,4]benzodiazepin-3-yl}{4-[2-(4-morpholinyl)ethyl]-1-piperazinyl}methanone]
24% | – | CN(C)CCN(C)C(=O)c1ccc2n1Cc1ccccc1N(C(=O)c1ccc(-c3cccc4ccccc34)cc1Cl)C2 [Example 96, 10-[2-Chloro-4-(1-naphthyl)benzoyl]-N-[2-(dimethylamino)ethyl]-N-methyl-10,11-dihydro-5H-pyrrolo[2,1-c][1,4]benzodiazepine-3-carboxamide]
21% | – | COc1ccccc1-c1ccc(C(=O)N2Cc3ccc(C(=O)NCCCN(C)C)n3Cc3ccccc32)cc1OC [Example 81, 10-[(2,2′-Dimethoxy[1,1′-biphenyl]-4-yl)carbonyl]-N-[3-(dimethylamino)propyl]-10,11-dihydro-5H-pyrrolo[2,1-c][1,4]benzodiazepine-3-carboxamide]
18% | – | COc1cccc(-c2ccc(C(=O)N3Cc4ccc(C(=O)N(C)CCCN(C)C)n4Cc4ccccc43)cc2C)c1 [Example 102, N-[3-(Dimethylamino)propyl]-10-[(3′-methoxy-2-methyl[1,1′-biphenyl]-4-yl)carbonyl]-N-methyl-10,11-dihydro-5H-pyrrolo[2,1-c][1,4]benzodiazepine-3-carboxamide]
34% | – | COc1cc(C(=O)N2Cc3ccc(C(=O)N(C)CCCN(C)C)n3Cc3ccccc32)ccc1-c1cccc2ccccc12 [Example 106, N-[3-(Dimethylamino)propyl]-10-[3-methoxy-4-(1-naphthyl)benzoyl]-N-methyl-10,11-dihydro-5H-pyrrolo[2,1-c][1,4]benzodiazepine-3-carboxamide]

The next lines start with the compound.

SMILES | inhibition at 0.1 µM | IC50
COc1cc(-c2ccccc2C(F)(F)F)c(OC)cc1C(=O)N1Cc2cccn2Cc2ccccc21 [Example 32, 10-{[3,6-Dimethoxy-2′-trifluoromethyl-[1,1′-biphenyl]-4-yl]carbonyl}-10,11-dihydro-5H-pyrrolo[2,1-c][1,4]benzodiazepine] | – | 605 nM
COc1cc(C(=O)N2Cc3ccc(C(=O)N(C)CCN(C)C)n3Cc3ccccc32)ccc1-c1ccccc1C(F)(F)F [Example 22, N-Methyl-[N-(2-dimethylamino)ethyl]-10-{[2-methoxy-2′-trifluoromethyl-[1,1′-biphenyl]-4-yl]carbonyl}-10,11-dihydro-5H-pyrrolo[2,1-c][1,4]benzodiazepine-3-carboxamide] | – | 1430 nM
COc1cc(-c2ccccc2Cl)c(Cl)cc1C(=O)N1Cc2ccc(C(=O)N(C)C3CCN(C)CC3)n2Cc2ccccc21 [Example 43, 10-[(2′-Chloro-6-chloro-3-methoxy-[1,1′-biphenyl]-4-yl)carbonyl]-N-methyl-N-(1-methylpiperidin-4-yl)-10,11-dihydro-5H-pyrrolo[2,1-c][1,4]benzodiazepine-3-carboxamide] | – | 409 nM
Cc1cc(C(=O)N2Cc3ccc(C(=O)N4CCN(C)CC4)n3Cc3ccccc32)ccc1-c1ccccc1C(F)(F)F [Example 2, (4-Methyl-piperazin-1-yl)-[10-(2-methyl-2′-trifluoromethyl-[1,1′-biphenyl]-4-yl)-carbonyl]-10,11-dihydro-5H-pyrrolo[2,1-c][1,4]benzodiazepin-3-yl-methanone] | – | 1760 nM
Cc1cc(C(=O)N2Cc3ccc(C(=O)NC(=N)N)n3Cc3ccccc32)ccc1-c1ccccc1C(F)(F)F [Example 8, N-[(10-{[2-methyl-2′-(trifluoromethyl)[1,1′-biphenyl]-4-yl]carbonyl}-10,11-dihydro-5H-pyrrolo[2,1-c][1,4]benzodiazepin-3-yl)carbonyl]guanidine] | – | 1470 nM
COc1ccccc1-c1ccc(C(=O)N2Cc3ccc(C(=O)N4CCCN(C)CC4)n3Cc3ccccc32)cc1 [Example 61, {10-[(2′-Methoxy[1,1′-biphenyl]-4-yl)carbonyl]-10,11-dihydro-5H-pyrrolo[2,1-c][1,4]benzodiazepin-3-yl}(4-methyl-1,4-diazepan-1-yl)methanone] | – | 745 nM
Cc1cc(C(=O)N2Cc3ccc(C(=O)N4CCNCC4)n3Cc3ccccc32)ccc1-c1ccccc1C(F)(F)F [Example 7, 10,11-Dihydro-10-[[2-methyl-2′-trifluoromethyl-[1,1′-biphenyl]-4-yl]carbonyl]-3-(1-piperazinylcarbonyl)-5H-pyrrolo[2,1-c][1,4]benzodiazepine hydrochloride salt] | – | 2460 nM
COc1cc(C(=O)N2Cc3cccn3Cc3ccccc32)ccc1-n1c(C)ccc1C [Example 27, [4-(2,5-Dimethyl-1-H-pyrrol-1-yl)-3-methoxy-phenyl][10,11-dihydro-5H-pyrrolo[2,1-c][1,4]benzodiazepin-10-yl]methanone] | – | 149 nM
